{"source": "paper doi:10.1101/2021.09.30.462449v1", "about": "(biorxiv, 2021)", "assay_in_all_cases": "biochemical", "settings_in_all_cases": "read-out: % inhibition mean (Z'Lyte)", "key": {"[1]": {"target": "ABL1 (Homo sapiens, UniProt P00519)"}, "[2]": {"target": "ABL1 G250E (Homo sapiens, UniProt P00519, G250E)"}, "[3]": {"target": "ALK (Homo sapiens, UniProt Q9UM73)"}, "[4]": {"target": "AMPK (A2/B1/G2) (Homo sapiens, UniProt P54646)"}, "[5]": {"target": "CDK1/cyclin B (Homo sapiens, UniProt P06493)", "sequence (P14635 whole entry)": "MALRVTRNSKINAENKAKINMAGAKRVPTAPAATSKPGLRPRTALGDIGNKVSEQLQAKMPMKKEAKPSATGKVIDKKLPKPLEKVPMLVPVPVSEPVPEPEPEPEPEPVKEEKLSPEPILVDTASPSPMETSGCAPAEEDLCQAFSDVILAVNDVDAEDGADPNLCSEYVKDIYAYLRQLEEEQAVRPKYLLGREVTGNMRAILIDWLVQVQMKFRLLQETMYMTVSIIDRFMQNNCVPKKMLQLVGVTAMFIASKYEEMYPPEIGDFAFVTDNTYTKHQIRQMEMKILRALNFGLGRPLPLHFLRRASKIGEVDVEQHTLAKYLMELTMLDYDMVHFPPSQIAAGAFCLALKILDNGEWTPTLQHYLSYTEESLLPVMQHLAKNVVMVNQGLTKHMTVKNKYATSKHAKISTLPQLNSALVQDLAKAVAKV", "sequence (P06493 whole entry)": "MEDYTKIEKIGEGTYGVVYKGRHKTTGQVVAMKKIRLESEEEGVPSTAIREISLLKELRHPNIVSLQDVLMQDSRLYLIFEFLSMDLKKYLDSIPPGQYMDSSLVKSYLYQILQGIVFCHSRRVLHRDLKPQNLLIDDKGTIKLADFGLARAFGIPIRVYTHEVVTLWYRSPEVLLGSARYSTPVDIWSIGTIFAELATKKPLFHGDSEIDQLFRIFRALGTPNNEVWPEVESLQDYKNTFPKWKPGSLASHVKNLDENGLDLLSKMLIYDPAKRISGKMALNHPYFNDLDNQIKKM"}, "[6]": {"target": "CDK17/cyclin Y (Homo sapiens, UniProt Q00537)"}, "[7]": {"target": "CHEK1 (CHK1) (Homo sapiens, UniProt O14757)"}, "[8]": {"target": "CHEK2 (CHK2) (Homo sapiens, UniProt O96017)"}, "[9]": {"target": "CSNK1A1L (Homo sapiens, UniProt Q8N752)", "sequence (Q8N752 whole entry)": "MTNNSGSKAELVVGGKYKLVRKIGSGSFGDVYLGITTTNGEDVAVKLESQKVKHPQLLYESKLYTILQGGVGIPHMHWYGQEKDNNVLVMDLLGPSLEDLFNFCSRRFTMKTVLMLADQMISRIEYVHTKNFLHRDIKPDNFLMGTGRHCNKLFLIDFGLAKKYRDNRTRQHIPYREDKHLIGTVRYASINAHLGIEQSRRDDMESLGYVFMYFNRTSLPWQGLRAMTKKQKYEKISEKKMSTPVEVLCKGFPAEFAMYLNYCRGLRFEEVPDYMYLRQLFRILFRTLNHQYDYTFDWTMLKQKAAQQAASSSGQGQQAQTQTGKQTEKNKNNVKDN"}, "[10]": {"target": "EPHA1 (Homo sapiens, UniProt P21709)", "sequence (P21709 whole entry)": "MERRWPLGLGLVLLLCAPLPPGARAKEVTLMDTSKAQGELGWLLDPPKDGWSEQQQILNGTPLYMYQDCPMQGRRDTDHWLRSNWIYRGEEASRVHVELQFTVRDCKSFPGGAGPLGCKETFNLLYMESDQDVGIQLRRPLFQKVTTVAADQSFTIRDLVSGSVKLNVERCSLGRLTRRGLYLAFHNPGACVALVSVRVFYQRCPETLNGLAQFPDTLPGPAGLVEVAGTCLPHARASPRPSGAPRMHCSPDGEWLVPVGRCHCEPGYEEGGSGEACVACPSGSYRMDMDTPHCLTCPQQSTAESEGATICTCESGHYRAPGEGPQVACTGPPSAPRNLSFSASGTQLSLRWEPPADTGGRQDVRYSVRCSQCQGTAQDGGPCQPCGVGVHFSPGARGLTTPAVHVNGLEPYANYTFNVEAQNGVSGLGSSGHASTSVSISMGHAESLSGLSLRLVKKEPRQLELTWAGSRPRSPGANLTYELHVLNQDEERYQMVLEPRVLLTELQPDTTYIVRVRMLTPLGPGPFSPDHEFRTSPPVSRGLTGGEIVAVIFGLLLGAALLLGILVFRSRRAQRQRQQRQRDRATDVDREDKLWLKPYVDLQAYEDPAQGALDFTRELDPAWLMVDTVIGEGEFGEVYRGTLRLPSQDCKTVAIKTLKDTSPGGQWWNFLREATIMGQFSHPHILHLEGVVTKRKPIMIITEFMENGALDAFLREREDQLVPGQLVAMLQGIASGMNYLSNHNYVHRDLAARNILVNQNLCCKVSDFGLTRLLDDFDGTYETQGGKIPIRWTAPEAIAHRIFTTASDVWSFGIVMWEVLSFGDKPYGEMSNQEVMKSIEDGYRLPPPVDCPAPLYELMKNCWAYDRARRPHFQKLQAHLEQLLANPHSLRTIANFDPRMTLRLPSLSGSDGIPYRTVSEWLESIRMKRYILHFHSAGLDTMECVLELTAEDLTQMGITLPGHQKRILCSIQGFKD"}, "[11]": {"target": "EPHA2 (Homo sapiens, UniProt P29317)", "sequence (P29317 whole entry)": "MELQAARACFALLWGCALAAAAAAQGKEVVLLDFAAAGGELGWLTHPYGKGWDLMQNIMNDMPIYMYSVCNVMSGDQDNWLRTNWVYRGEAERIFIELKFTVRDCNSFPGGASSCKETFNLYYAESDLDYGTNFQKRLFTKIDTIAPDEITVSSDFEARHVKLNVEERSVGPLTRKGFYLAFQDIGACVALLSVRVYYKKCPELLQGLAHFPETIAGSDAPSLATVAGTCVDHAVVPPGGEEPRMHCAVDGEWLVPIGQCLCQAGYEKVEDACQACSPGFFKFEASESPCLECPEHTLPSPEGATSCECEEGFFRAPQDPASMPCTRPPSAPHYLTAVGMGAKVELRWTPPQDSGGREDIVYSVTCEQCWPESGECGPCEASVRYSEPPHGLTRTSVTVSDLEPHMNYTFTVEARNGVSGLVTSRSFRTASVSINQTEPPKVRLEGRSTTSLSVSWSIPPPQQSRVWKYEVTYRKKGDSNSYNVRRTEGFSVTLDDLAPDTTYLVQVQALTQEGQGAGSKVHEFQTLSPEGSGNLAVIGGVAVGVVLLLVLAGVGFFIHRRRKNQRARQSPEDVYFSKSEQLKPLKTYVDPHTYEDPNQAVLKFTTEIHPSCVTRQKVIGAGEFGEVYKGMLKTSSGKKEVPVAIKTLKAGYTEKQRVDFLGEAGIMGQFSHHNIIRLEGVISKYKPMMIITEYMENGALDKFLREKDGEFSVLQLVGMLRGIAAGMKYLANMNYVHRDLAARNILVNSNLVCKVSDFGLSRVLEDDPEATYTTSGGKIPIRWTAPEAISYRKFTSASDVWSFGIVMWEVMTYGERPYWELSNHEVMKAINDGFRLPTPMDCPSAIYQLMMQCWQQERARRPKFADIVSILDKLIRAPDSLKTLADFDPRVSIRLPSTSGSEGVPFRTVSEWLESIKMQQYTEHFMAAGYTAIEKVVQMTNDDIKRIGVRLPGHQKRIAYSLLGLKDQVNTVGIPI"}, "[12]": {"target": "EPHA5 (Homo sapiens, UniProt P54756)", "sequence (P54756 whole entry)": "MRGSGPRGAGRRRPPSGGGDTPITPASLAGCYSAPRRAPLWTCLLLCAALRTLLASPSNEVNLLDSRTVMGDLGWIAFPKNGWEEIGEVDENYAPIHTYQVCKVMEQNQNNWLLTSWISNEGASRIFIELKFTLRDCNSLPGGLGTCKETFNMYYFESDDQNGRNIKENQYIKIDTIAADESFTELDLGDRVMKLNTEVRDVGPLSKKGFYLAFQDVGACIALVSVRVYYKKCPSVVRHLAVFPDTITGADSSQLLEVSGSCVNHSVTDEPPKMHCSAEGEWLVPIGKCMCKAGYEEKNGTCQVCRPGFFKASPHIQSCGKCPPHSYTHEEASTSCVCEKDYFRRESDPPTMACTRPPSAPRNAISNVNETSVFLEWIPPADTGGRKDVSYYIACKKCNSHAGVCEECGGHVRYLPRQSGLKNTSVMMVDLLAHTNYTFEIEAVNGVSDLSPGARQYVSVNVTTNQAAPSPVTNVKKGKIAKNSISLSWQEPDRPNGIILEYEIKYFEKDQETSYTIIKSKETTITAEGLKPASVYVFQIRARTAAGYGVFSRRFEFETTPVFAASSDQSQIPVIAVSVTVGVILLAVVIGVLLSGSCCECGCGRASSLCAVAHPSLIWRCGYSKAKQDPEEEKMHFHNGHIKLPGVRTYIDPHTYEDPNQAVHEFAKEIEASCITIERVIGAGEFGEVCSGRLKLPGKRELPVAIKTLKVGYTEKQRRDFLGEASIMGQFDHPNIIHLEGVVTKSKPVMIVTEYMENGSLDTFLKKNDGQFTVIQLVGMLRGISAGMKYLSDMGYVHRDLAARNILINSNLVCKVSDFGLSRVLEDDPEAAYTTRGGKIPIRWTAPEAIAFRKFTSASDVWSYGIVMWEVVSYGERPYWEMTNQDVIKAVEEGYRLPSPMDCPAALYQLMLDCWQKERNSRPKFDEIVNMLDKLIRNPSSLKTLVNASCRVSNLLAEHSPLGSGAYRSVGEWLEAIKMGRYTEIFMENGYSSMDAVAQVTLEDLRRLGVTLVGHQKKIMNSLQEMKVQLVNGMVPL"}, "[13]": {"target": "FES (FPS) (Homo sapiens, UniProt P07332)"}, "[14]": {"target": "GRK7 (Homo sapiens, UniProt Q8WTQ7)"}, "[15]": {"target": "GSK3B (GSK3 beta) (Homo sapiens, UniProt P49841)"}, "[16]": {"target": "MAPK12 (p38 gamma) (Homo sapiens, UniProt P53778)"}, "[17]": {"target": "MAPKAPK3 (Homo sapiens, UniProt Q16644)"}, "[18]": {"target": "MARK4 (Homo sapiens, UniProt Q96L34)"}, "[19]": {"target": "MET (cMet) (Homo sapiens, UniProt P08581)"}, "[20]": {"target": "PAK7 (KIAA1264) (Homo sapiens, UniProt Q9P286)"}, "[21]": {"target": "PDGFRA T674I (Homo sapiens, UniProt P16234, T674I)"}, "[22]": {"target": "PRKCB2 (PKC beta II) (Homo sapiens, UniProt P05771)", "sequence (P05771 whole entry)": "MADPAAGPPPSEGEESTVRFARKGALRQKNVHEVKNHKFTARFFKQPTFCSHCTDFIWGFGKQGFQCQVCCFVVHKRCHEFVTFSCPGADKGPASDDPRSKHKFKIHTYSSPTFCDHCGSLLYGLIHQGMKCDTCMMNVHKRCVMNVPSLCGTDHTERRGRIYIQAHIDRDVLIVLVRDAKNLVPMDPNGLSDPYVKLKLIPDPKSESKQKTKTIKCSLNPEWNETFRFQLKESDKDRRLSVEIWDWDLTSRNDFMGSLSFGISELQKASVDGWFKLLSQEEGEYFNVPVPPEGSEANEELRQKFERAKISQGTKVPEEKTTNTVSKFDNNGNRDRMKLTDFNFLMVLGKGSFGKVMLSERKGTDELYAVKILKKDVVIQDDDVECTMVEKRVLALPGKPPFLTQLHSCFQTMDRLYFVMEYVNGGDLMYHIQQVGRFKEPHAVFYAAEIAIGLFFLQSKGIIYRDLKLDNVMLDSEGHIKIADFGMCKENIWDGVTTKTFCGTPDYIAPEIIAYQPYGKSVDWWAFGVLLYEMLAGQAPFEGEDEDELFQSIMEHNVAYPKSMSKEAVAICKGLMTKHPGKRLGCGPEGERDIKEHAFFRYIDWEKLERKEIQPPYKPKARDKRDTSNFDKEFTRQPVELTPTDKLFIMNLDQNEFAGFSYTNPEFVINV"}, "[23]": {"target": "PRKCD (PKC delta) (Homo sapiens, UniProt Q05655)"}, "[24]": {"target": "RPS6KA1 (RSK1) (Homo sapiens, UniProt Q15418)"}, "[25]": {"target": "SBK1 (Homo sapiens, UniProt Q52WX2)"}, "[26]": {"target": "SGK (SGK1) (Homo sapiens, UniProt O00141)"}, "[27]": {"target": "STK25 (YSK1) (Homo sapiens, UniProt O00506)"}, "[28]": {"target": "TNK1 (Homo sapiens, UniProt Q13470)"}, "[29]": {"target": "TXK (Homo sapiens, UniProt P42681)"}}, "data": [{"smiles": "COc1ccc2nc3cc(Cl)ccc3c(Nc3cc(CN4CCCC4)c(O)c(CN4CCCC4)c3)c2n1", "note": "[Pyronaridine, 4-[(7-Chloro-2-methoxybenzo[b][1,5]naphthyridin-10-yl)amino]-2,6-bis(1-pyrrolidinylmethyl)phenol phosphate (1:4)]", "values": [{"measurement": "inhibition at 1 µM", "setting": "[1]", "value": 2, "unit": "%"}, {"measurement": "inhibition at 1 µM", "setting": "[2]", "value": 1, "unit": "%"}, {"measurement": "inhibition at 1 µM", "setting": "[3]", "value": -1, "unit": "%"}, {"measurement": "inhibition at 1 µM", "setting": "[4]", "value": 1, "unit": "%"}, {"measurement": "inhibition at 1 µM", "setting": "[5]", "value": 5, "unit": "%"}, {"measurement": "inhibition at 1 µM", "setting": "[6]", "value": -2, "unit": "%"}, {"measurement": "inhibition at 1 µM", "setting": "[7]", "value": 8, "unit": "%"}, {"measurement": "inhibition at 1 µM", "setting": "[8]", "value": 0, "unit": "%"}, {"measurement": "inhibition at 1 µM", "setting": "[9]", "value": 3, "unit": "%"}, {"measurement": "inhibition at 1 µM", "setting": "[10]", "value": 1, "unit": "%"}, {"measurement": "inhibition at 1 µM", "setting": "[11]", "value": 5, "unit": "%"}, {"measurement": "inhibition at 1 µM", "setting": "[12]", "value": -3, "unit": "%"}, {"measurement": "inhibition at 1 µM", "setting": "[13]", "value": -10, "unit": "%"}, {"measurement": "inhibition at 1 µM", "setting": "[14]", "value": 4, "unit": "%"}, {"measurement": "inhibition at 1 µM", "setting": "[15]", "value": 8, "unit": "%"}, {"measurement": "inhibition at 1 µM", "setting": "[16]", "value": 7, "unit": "%"}, {"measurement": "inhibition at 1 µM", "setting": "[17]", "value": 17, "unit": "%"}, {"measurement": "inhibition at 1 µM", "setting": "[18]", "value": -4, "unit": "%"}, {"measurement": "inhibition at 1 µM", "setting": "[19]", "value": -1, "unit": "%"}, {"measurement": "inhibition at 1 µM", "setting": "[20]", "value": -5, "unit": "%"}, {"measurement": "inhibition at 1 µM", "setting": "[21]", "value": 0, "unit": "%"}, {"measurement": "inhibition at 1 µM", "setting": "[22]", "value": 15, "unit": "%"}, {"measurement": "inhibition at 1 µM", "setting": "[23]", "value": 3, "unit": "%"}, {"measurement": "inhibition at 1 µM", "setting": "[24]", "value": -1, "unit": "%"}, {"measurement": "inhibition at 1 µM", "setting": "[25]", "value": 6, "unit": "%"}, {"measurement": "inhibition at 1 µM", "setting": "[26]", "value": 4, "unit": "%"}, {"measurement": "inhibition at 1 µM", "setting": "[27]", "value": -7, "unit": "%"}, {"measurement": "inhibition at 1 µM", "setting": "[28]", "value": -3, "unit": "%"}, {"measurement": "inhibition at 1 µM", "setting": "[29]", "value": 4, "unit": "%"}]}]}
